Measurements taken from patent US10695321B2, “Use of glycopyrrolate for treating tachycardia” (Heptares Therapeutics Limited, priority 2011, dated 2020).

System: subjects with COPD
Experiment: Phase IIa placebo-controlled crossover dose-ranging study, heart rate (vital signs) after single inhaled dose
Assay type: in vivo, human
Settings: for Adjusted Mean for Average Change in Heart Rate from Test day Baseline: ANCOVA
Method: The study was a Phase IIa, multi-centre, randomised, double-blind, placebo-controlled, crossover, dose-ranging study using four dose levels of glycopyrronium bromide in subjects with COPD. A total of 40 subjects were required to complete the study.
Subjects were randomised to receive a single inhaled dose of 20, 125, 250 and 400 μg of glycopyrronium bromide in ascending order, with a placebo dose randomised into the sequence over 5 study visits. Subjects were randomised to receive treatment on Study Day 1 prior to dosing. All doses, including placebo, were administered using the Miat Monohaler.
The Treatment period then consisted of five study visits (separated by a 5-14-day wash-out period), during which subjects were dosed with a single inhaled dose of glycopyrronium bromide using a Miat Monohaler, in ascending order (20, 125, 250 or 400 μg). A placebo was randomly administered (using a Miat Monohaler) at one of the study visits; subsequent visits continued with the next highest dose of glycopyrronium bromide to that which was administered prior to the placebo.
All subjects were scheduled to be dosed between 08:00 and 10:00 am. For individual subjects, dosing was at the same time of day (±30 minutes). At each dosing visit, subjects received a single dose of glycopyrronium bromide or placebo administered via Miat Monohaler. Each different dose (20, 125, 250 or 400 μg) was contained in one capsule. An appropriate number of Miat Monohalers to conduct the study was also supplied to the site. A new Miat Monohaler was used to administer each dose at each visit.
copyrronium bromide was presented in size 3, white opaque, hard, gelatin capsules packaged in aluminium pouches. The capsules were presented in four dose strengths containing 20, 125, 250, or 400 μg glycopyrronium bromide. In addition to glycopyrronium bromide, excipient present in the capsule formulation consisted of the PowderHale^TM formulation of lactose and magnesium stearate.
All vital signs were measured on each study day, including heart rate (with the subject semi-supine for 5 minutes prior to measurement); blood pressure; respiratory rate and temperature were measured at each visit and before receiving study medication (pre-treatment), if applicable. Blood pressure and heart rate were also measured at 45, 90 minutes and 5, 10, 20 and 30 hours post-treatment on study days.
The statistical analyses were to be reported using summary tables and data listings. Statistical tests for the evaluation were to be performed at the 0.05 significance level using a two-sided test.
All analyses and tabulations were to be performed using SASS Version 6.12 on a PC platform. Continuous variables were to be summarised with sample size (n), mean, standard deviation (SD), minimum, median, and maximum. […] The mean was to have one extra decimal place and the standard deviation was to have two extra decimal places. Categorical variables were to be summarised with number and percentage of subjects.

[1] = 20 μg single inhaled dose, 45 mins post-dose
[2] = 20 μg single inhaled dose, 90 mins post-dose
[3] = 20 μg single inhaled dose, 5 hrs post-dose
[4] = 20 μg single inhaled dose, 10 hrs post-dose
[5] = 20 μg single inhaled dose, 20 hrs post-dose
[6] = 20 μg single inhaled dose, 30 hrs post-dose
[7] = 20 μg single inhaled dose, pre-dose to 45 mins post-dose
[8] = 20 μg single inhaled dose, pre-dose to 90 mins post-dose
[9] = 20 μg single inhaled dose, pre-dose to 5 hours post-dose
[10] = 20 μg single inhaled dose, pre-dose to 10 hours post-dose
[11] = 20 μg single inhaled dose, pre-dose to 20 hours post-dose
[12] = 125 μg single inhaled dose, 45 mins post-dose
[13] = 125 μg single inhaled dose, 90 mins post-dose
[14] = 125 μg single inhaled dose, 5 hrs post-dose
[15] = 125 μg single inhaled dose, 10 hrs post-dose
[16] = 125 μg single inhaled dose, 20 hrs post-dose
[17] = 125 μg single inhaled dose, 30 hrs post-dose
[18] = 125 μg single inhaled dose, pre-dose to 45 mins post-dose
[19] = 125 μg single inhaled dose, pre-dose to 90 mins post-dose
[20] = 125 μg single inhaled dose, pre-dose to 5 hours post-dose
[21] = 125 μg single inhaled dose, pre-dose to 10 hours post-dose
[22] = 125 μg single inhaled dose, pre-dose to 20 hours post-dose
[23] = 125 μg single inhaled dose, pre-dose to 30 hours post-dose

Structure (SMILES): C[N+]1(C)CCC(OC(=O)C(O)(c2ccccc2)C2CCCC2)C1 (stereo not drawn) [glycopyrronium bromide]
- Heart Rate Mean [1]: 70.3 bpm
- Heart Rate Median [1]: 68.0 bpm
- Heart Rate Mean [2]: 72.5 bpm
- Heart Rate Median [2]: 71.0 bpm
- Heart Rate Mean [3]: 72.8 bpm
- Heart Rate Median [3]: 74.0 bpm
- Heart Rate Mean [4]: 69.1 bpm
- Heart Rate Median [4]: 68.0 bpm
- Heart Rate Mean [5]: 68.8 bpm
- Heart Rate Median [5]: 69.5 bpm
- Heart Rate Mean [6]: 69.8 bpm
- Heart Rate Median [6]: 70.0 bpm
- Heart Rate Change from Test day Baseline, Mean [7]: −2.5 bpm
- Heart Rate Change from Test day Baseline, Median [7]: −2.0 bpm
- Heart Rate Change from Test day Baseline, Mean [8]: −0.2 bpm
- Heart Rate Change from Test day Baseline, Median [8]: 0.0 bpm
- Heart Rate Change from Test day Baseline, Mean [9]: −0.0 bpm
- Heart Rate Change from Test day Baseline, Median [9]: 1.0 bpm
- Heart Rate Change from Test day Baseline, Mean [10]: −3.4 bpm
- Heart Rate Change from Test day Baseline, Median [10]: −1.0 bpm
- Heart Rate Change from Test day Baseline, Mean [11]: −3.6 bpm
- Heart Rate Change from Test day Baseline, Median [11]: −3.0 bpm
- Heart Rate Change from Test day Baseline, Mean (20 μg single inhaled dose, pre-dose to 30 hours post-dose): −2.7 bpm
- Adjusted Mean for Average Change in Heart Rate from Test day Baseline (20 μg, to 45 mins post-dose): −2.323 bpm
- Dose v Placebo Difference, adjusted mean change in Heart Rate from Test day Baseline (20 μg, to 45 mins post-dose, p-value 0.997): 0.005 bpm
- Adjusted Mean for Average Change in Heart Rate from Test day Baseline (20 μg, to 90 mins post-dose): 0.033 bpm
- Dose v Placebo Difference, adjusted mean change in Heart Rate from Test day Baseline (20 μg, to 90 mins post-dose, p-value 0.489): −1.239 bpm
- Adjusted Mean for Average Change in Heart Rate from Test day Baseline (20 μg, to 5 hours post-dose): 1.933 bpm
- Dose v Placebo Difference, adjusted mean change in Heart Rate from Test day Baseline (20 μg, to 5 hours post-dose, p-value 0.945): −0.114 bpm
- Adjusted Mean for Average Change in Heart Rate from Test day Baseline (20 μg, to 10 hours post-dose): −0.126 bpm
- Dose v Placebo Difference, adjusted mean change in Heart Rate from Test day Baseline (20 μg, to 10 hours post-dose, p-value 0.349): 1.698 bpm
- Adjusted Mean for Average Change in Heart Rate from Test day Baseline (20 μg, to 20 hours post-dose): −4.339 bpm
- Dose v Placebo Difference, adjusted mean change in Heart Rate from Test day Baseline (20 μg, to 20 hours post-dose, p-value 0.068): −2.872 bpm
- Adjusted Mean for Average Change in Heart Rate from Test day Baseline (20 μg, to 30 hours post-dose): −0.880 bpm
- Dose v Placebo Difference, adjusted mean change in Heart Rate from Test day Baseline (20 μg, to 30 hours post-dose, p-value 0.379): −1.499 bpm
- Heart Rate Mean [12]: 65.5 bpm
- Heart Rate Median [12]: 63.5 bpm
- Heart Rate Mean [13]: 67.6 bpm
- Heart Rate Median [13]: 69.0 bpm
- Heart Rate Mean [14]: 70.6 bpm
- Heart Rate Median [14]: 73.0 bpm
- Heart Rate Mean [15]: 67.0 bpm
- Heart Rate Median [15]: 67.0 bpm
- Heart Rate Mean [16]: 66.4 bpm
- Heart Rate Median [16]: 66.0 bpm
- Heart Rate Mean [17]: 72.1 bpm
- Heart Rate Median [17]: 72.0 bpm
- Heart Rate Change from Test day Baseline, Mean [18]: −3.8 bpm
- Heart Rate Change from Test day Baseline, Median [18]: −4.0 bpm
- Heart Rate Change from Test day Baseline, Mean [19]: −1.8 bpm
- Heart Rate Change from Test day Baseline, Median [19]: −2.0 bpm
- Heart Rate Change from Test day Baseline, Mean [20]: 1.2 bpm
- Heart Rate Change from Test day Baseline, Median [20]: 0.5 bpm
- Heart Rate Change from Test day Baseline, Mean [21]: −2.1 bpm
- Heart Rate Change from Test day Baseline, Median [21]: −3.0 bpm
- Heart Rate Change from Test day Baseline, Mean [22]: −2.5 bpm
- Heart Rate Change from Test day Baseline, Median [22]: −1.5 bpm
- Heart Rate Change from Test day Baseline, Mean [23]: 2.8 bpm
- Heart Rate Change from Test day Baseline, Median [23]: 1.0 bpm
- Adjusted Mean for Average Change in Heart Rate from Test day Baseline (125 μg, to 45 mins post-dose): −2.854 bpm
- Dose v Placebo Difference, adjusted mean change in Heart Rate from Test day Baseline (125 μg, to 45 mins post-dose, p-value 0.712): −0.526 bpm
- Adjusted Mean for Average Change in Heart Rate from Test day Baseline (125 μg, to 90 mins post-dose): −0.650 bpm
- Dose v Placebo Difference, adjusted mean change in Heart Rate from Test day Baseline (125 μg, to 90 mins post-dose, p-value 0.240): −1.921 bpm
- Adjusted Mean for Average Change in Heart Rate from Test day Baseline (125 μg, to 5 hours post-dose): 2.382 bpm
- Dose v Placebo Difference, adjusted mean change in Heart Rate from Test day Baseline (125 μg, to 5 hours post-dose, p-value 0.826): 0.335 bpm
- Adjusted Mean for Average Change in Heart Rate from Test day Baseline (125 μg, to 10 hours post-dose): −0.186 bpm
- Dose v Placebo Difference, adjusted mean change in Heart Rate from Test day Baseline (125 μg, to 10 hours post-dose, p-value 0.339): 1.638 bpm
- Adjusted Mean for Average Change in Heart Rate from Test day Baseline (125 μg, to 20 hours post-dose): −1.590 bpm
- Dose v Placebo Difference, adjusted mean change in Heart Rate from Test day Baseline (125 μg, to 20 hours post-dose, p-value 0.932): −0.123 bpm
- Adjusted Mean for Average Change in Heart Rate from Test day Baseline (125 μg, to 30 hours post-dose): 2.796 bpm
- Dose v Placebo Difference, adjusted mean change in Heart Rate from Test day Baseline (125 μg, to 30 hours post-dose, p-value 0.168): 2.177 bpm
- Heart Rate Mean (250 μg single inhaled dose, 45 mins post-dose): 65.1 bpm
